Test results published in ChEMBL document CHEMBL4219034, “Synthesis, antimicrobial activity, structure-activity relationship and cytotoxic studies of a new series of functionalized (Z)-3-(2-oxo-2-substituted ethylidene)-3,4-dihydro-2H-benzo[b][1,4]oxazin-2-ones” (Bioorg Med Chem Lett, 2017).
≈ marks a conversion by molar mass, not a printed value. Calls of active or inactive are those of the source. The calls are words filed in the database; no cut-off is given here.

What was measured:
Type in all cases: functional
[1] = test system: Fusarium oxysporum; experiment: Antifungal activity against Fusarium oxysporum ATCC 62506 at 100 ug/ml incubated for 72 hrs by agar disc diffusion assay; details: for zone of inhibition at 100 µg/mL: ATCC 62506, 72 h, read-out: IZ
[2] = test system: Talaromyces funiculosus; experiment: Antifungal activity against Penicillium funiculosum ATCC 11797 incubated for 24 hrs by serial dilution method
[3] = test system: Trichoderma reesei; experiment: Antifungal activity against Trichoderma reesei ATCC 13631 at 100 ug/ml incubated for 72 hrs by agar disc diffusion assay; details: for zone of inhibition at 100 µg/mL: ATCC 13631, 72 h, read-out: IZ
[4] = test system: Bacillus subtilis; experiment: Antibacterial activity against Bacillus subtilis MTCC 10619 at 100 ug/ml incubated for 12 hrs by agar disc diffusion assay; details: for zone of inhibition at 100 µg/mL: MTCC 10619, 12 h, read-out: IZ
[5] = test system: Bacillus subtilis; experiment: Antibacterial activity against Bacillus subtilis MTCC 10619 incubated for 24 hrs by serial dilution method
[6] = test system: Staphylococcus aureus; experiment: Antibacterial activity against Staphylococcus aureus MTCC 3381 incubated for 24 hrs by serial dilution method
[7] = test system: Fusarium oxysporum; experiment: Antifungal activity against Fusarium oxysporum ATCC 62506 incubated for 24 hrs by serial dilution method
[8] = test system: Aspergillus niger; experiment: Antifungal activity against Aspergillus niger ATCC 9029 incubated for 24 hrs by serial dilution method
[9] = test system: Streptomyces griseus; experiment: Antibacterial activity against Streptomyces griseus MTCC 4734 at 100 ug/ml incubated for 12 hrs by agar disc diffusion assay; details: for zone of inhibition at 100 µg/mL: MTCC 4734, 12 h, read-out: IZ
[10] = test system: Staphylococcus aureus; experiment: Antibacterial activity against Staphylococcus aureus MTCC 3381 at 100 ug/ml incubated for 12 hrs by agar disc diffusion assay; details: for zone of inhibition at 100 µg/mL: MTCC 3381, 12 h, read-out: IZ
[11] = test system: Aspergillus niger; experiment: Antifungal activity against Aspergillus niger ATCC 9029 at 100 ug/ml incubated for 72 hrs by agar disc diffusion assay; details: for zone of inhibition at 100 µg/mL: ATCC 9029, 72 h, read-out: IZ
[12] = test system: Escherichia coli; experiment: Antibacterial activity against Escherichia coli MTCC 443 at 100 ug/ml incubated for 12 hrs by agar disc diffusion assay; details: for zone of inhibition at 100 µg/mL: MTCC 443, 12 h, read-out: IZ
[13] = test system: Streptomyces griseus; experiment: Antibacterial activity against Streptomyces griseus MTCC 4734 incubated for 24 hrs by serial dilution method
[14] = test system: Trichoderma reesei; experiment: Antifungal activity against Trichoderma reesei ATCC 13631 incubated for 24 hrs by serial dilution method
[15] = test system: Escherichia coli; experiment: Antibacterial activity against Escherichia coli MTCC 443 incubated for 24 hrs by serial dilution method
[16] = test system: Talaromyces funiculosus; experiment: Antifungal activity against Penicillium funiculosum ATCC 11797 at 100 ug/ml incubated for 72 hrs by agar disc diffusion assay; details: for zone of inhibition at 100 µg/mL: ATCC 11797, 72 h, read-out: IZ

Row | Structure (SMILES) | zone of inhibition at 100 µg/mL [1] | MIC [2] | inhibition zone (IZ) [3] | zone of inhibition at 100 µg/mL [4] | MIC ([5]; MTCC 10619, 24 h) | MIC [6] | MIC ([7]; ATCC 62506, 24 h) | MIC [8] | zone of inhibition at 100 µg/mL [9] | inhibition zone (IZ) [10] | inhibition zone (IZ) [11] | zone of inhibition at 100 µg/mL [12] | MIC ([13]; MTCC 4734, 24 h) | MIC [14] | MIC ([15]; MTCC 443, 24 h) | inhibition zone (IZ) [16] | inhibition zone (IZ) [1] | inhibition zone (IZ) [4] | MIC [5] | MIC [7] | also measured
1 | O=C1Oc2ccc([N+](=O)[O-])cc2N/C1=C\C(=O)c1cccc2ccccc12 | 10 mm | inactive | inactive | 4 mm | 100 µg/mL (≈ 278 µM) | inactive | 50 µg/mL (≈ 139 µM) | inactive | 4 mm | inactive | inactive | 10 mm | 100 µg/mL (≈ 278 µM) | inactive | 100 µg/mL (≈ 278 µM) | inactive | – | – | – | – | –
2 | CC(=O)N1CCN(c2ccc(OCC3COC(Cn4ccnc4)(c4ccc(Cl)cc4Cl)O3)cc2)CC1 (centres undefined) [KETOCONAZOLE] | 20 mm | – | – | – | – | – | 12.5 µg/mL (≈ 23.5 µM) | – | – | – | – | – | – | – | – | – | – | – | – | – | MIC ([2]; ATCC 11797, 24 h): 25 µg/mL (≈ 47 µM); zone of inhibition at 100 µg/mL [3]: 24 mm; MIC ([8]; ATCC 9029, 24 h): 12.5 µg/mL (≈ 23.5 µM); zone of inhibition at 100 µg/mL [11]: 18 mm; MIC ([14]; ATCC 13631, 24 h): 25 µg/mL (≈ 47 µM); zone of inhibition at 100 µg/mL [16]: 22 mm
3 | O=C1Oc2ccccc2N/C1=C\C(=O)c1cccc2ccccc12 | – | inactive | – | – | – | inactive | – | – | – | inactive | – | – | – | – | – | inactive | inactive | inactive | inactive | inactive | zone of inhibition at 100 µg/mL [3]: 4 mm; MIC ([8]; ATCC 9029, 24 h): 100 µg/mL (≈ 317 µM); inhibition zone (IZ) [9]: inactive; zone of inhibition at 100 µg/mL [11]: 4 mm; inhibition zone (IZ) [12]: inactive; MIC [13]: inactive; MIC ([14]; ATCC 13631, 24 h): 100 µg/mL (≈ 317 µM); MIC [15]: inactive
4 | O=C1Oc2ccc(Cl)cc2N/C1=C\C(=O)c1ccc(C2CCCCC2)cc1 | 14 mm | inactive | – | – | – | inactive | 25 µg/mL (≈ 65.5 µM) | – | 6 mm | inactive | – | – | 100 µg/mL (≈ 262 µM) | – | – | inactive | – | inactive | inactive | – | zone of inhibition at 100 µg/mL [3]: 16 mm; MIC ([8]; ATCC 9029, 24 h): 25 µg/mL (≈ 65.5 µM); zone of inhibition at 100 µg/mL [11]: 10 mm; inhibition zone (IZ) [12]: inactive; MIC ([14]; ATCC 13631, 24 h): 25 µg/mL (≈ 65.5 µM); MIC [15]: inactive
5 | CC1(C)S[C@@H]2[C@H](NC(=O)[C@H](N)c3ccccc3)C(=O)N2[C@H]1C(=O)O [AMPICILLIN] | – | – | – | 18 mm | 25 µg/mL (≈ 71.5 µM) | – | – | – | 20 mm | – | – | 24 mm | 12.5 µg/mL (≈ 35.8 µM) | – | 12.5 µg/mL (≈ 35.8 µM) | – | – | – | – | – | MIC ([6]; MTCC 3381, 24 h): 12.5 µg/mL (≈ 35.8 µM); zone of inhibition at 100 µg/mL [10]: 11 mm
6 | O=C1Oc2ccc(Cl)cc2N/C1=C\C(=O)c1ccc(-c2ccccc2)cc1 | – | – | inactive | – | – | inactive | – | – | – | inactive | – | – | – | inactive | – | – | inactive | inactive | inactive | inactive | MIC ([2]; ATCC 11797, 24 h): 25 µg/mL (≈ 66.5 µM); MIC ([8]; ATCC 9029, 24 h): 25 µg/mL (≈ 66.5 µM); inhibition zone (IZ) [9]: inactive; zone of inhibition at 100 µg/mL [11]: 8 mm; inhibition zone (IZ) [12]: inactive; MIC [13]: inactive; MIC [15]: inactive; zone of inhibition at 100 µg/mL [16]: 12 mm
7 | Cc1ccc2c(c1)N/C(=C\C(=O)C1CC1)C(=O)O2 | – | inactive | inactive | – | – | – | – | inactive | 6 mm | – | inactive | 8 mm | 100 µg/mL (≈ 411 µM) | inactive | 100 µg/mL (≈ 411 µM) | inactive | inactive | inactive | inactive | inactive | MIC ([6]; MTCC 3381, 24 h): 12.5 µg/mL (≈ 51.4 µM); zone of inhibition at 100 µg/mL [10]: 14 mm
8 | O=C1Oc2cc([N+](=O)[O-])ccc2N/C1=C\C(=O)c1ccc(-c2ccccc2)cc1 | 18 mm | inactive | inactive | 8 mm | 100 µg/mL (≈ 259 µM) | inactive | 25 µg/mL (≈ 64.7 µM) | inactive | 10 mm | inactive | inactive | 12 mm | 50 µg/mL (≈ 129 µM) | inactive | 25 µg/mL (≈ 64.7 µM) | inactive | – | – | – | – | –
9 | Cc1ccc2c(c1)N/C(=C\C(=O)c1cccc3ccccc13)C(=O)O2 | – | inactive | inactive | – | – | inactive | – | inactive | – | inactive | inactive | – | – | inactive | – | inactive | inactive | inactive | inactive | inactive | inhibition zone (IZ) [9]: inactive; inhibition zone (IZ) [12]: inactive; MIC [13]: inactive; MIC [15]: inactive
10 | Cc1ccc2c(c1)N/C(=C\C(=O)c1ccc(-c3ccccc3)cc1)C(=O)O2 | – | inactive | inactive | 12 mm | 25 µg/mL (≈ 70.3 µM) | – | – | inactive | 18 mm | – | inactive | 20 mm | 12.5 µg/mL (≈ 35.2 µM) | inactive | 25 µg/mL (≈ 70.3 µM) | inactive | inactive | – | – | inactive | MIC ([6]; MTCC 3381, 24 h): 12.5 µg/mL (≈ 35.2 µM); zone of inhibition at 100 µg/mL [10]: 11 mm
11 | O=C1Oc2ccccc2N/C1=C\C(=O)C1CC1 | 8 mm | inactive | – | – | – | – | 100 µg/mL (≈ 436 µM) | inactive | – | – | inactive | 10 mm | – | – | 50 µg/mL (≈ 218 µM) | inactive | – | inactive | inactive | – | zone of inhibition at 100 µg/mL [3]: 4 mm; MIC ([6]; MTCC 3381, 24 h): 100 µg/mL (≈ 436 µM); inhibition zone (IZ) [9]: inactive; zone of inhibition at 100 µg/mL [10]: 4 mm; MIC [13]: inactive; MIC ([14]; ATCC 13631, 24 h): 100 µg/mL (≈ 436 µM)
12 | O=C1Oc2ccccc2N/C1=C\C(=O)c1ccc(-c2ccccc2)cc1 | – | – | inactive | – | – | inactive | – | – | – | inactive | – | 14 mm | – | inactive | 25 µg/mL (≈ 73.2 µM) | – | inactive | inactive | inactive | inactive | MIC ([2]; ATCC 11797, 24 h): 25 µg/mL (≈ 73.2 µM); MIC ([8]; ATCC 9029, 24 h): 100 µg/mL (≈ 293 µM); inhibition zone (IZ) [9]: inactive; zone of inhibition at 100 µg/mL [11]: 4 mm; MIC [13]: inactive; zone of inhibition at 100 µg/mL [16]: 14 mm
13 | O=C(N[C@H](CO)[C@H](O)c1ccc([N+](=O)[O-])cc1)C(Cl)Cl [CHLORAMPHENICOL] | – | – | – | 26 mm | 6.25 µg/mL (≈ 19.3 µM) | – | – | – | 28 mm | – | – | 32 mm | 3.12 µg/mL (≈ 9.67 µM) | – | 6.25 µg/mL (≈ 19.3 µM) | – | – | – | – | – | MIC ([6]; MTCC 3381, 24 h): 6.25 µg/mL (≈ 19.3 µM); zone of inhibition at 100 µg/mL [10]: 22 mm
